Here are results for 6 compounds from PMC7724630, “Improving the Stability of EGFR Inhibitor Cobalt(III) Prodrugs” (Inorganic Chemistry, 2020).

For orientation: IC50 means the concentration that gives 50% inhibition.

Like-named read-outs stand apart in the source and are kept apart here.

Series [1] concerns A431 cancer cells. Conditions: cited from earlier work.
Series [2] has as its system A431 cancer cells. As to the kind of experiment: MTT-based cytotoxicity assay under different O2 levels. In kind it is cell-based, Human. Conditions: A431, 72 h. For orientation: Tetrazolium dyes change colour on reduction, which living cells bring about.
For series [3] the following is noted: previous work; cited from earlier work.
The test system of series [4] is EGFR phosphorylation at position Y1068 and ERK 1/2 in A431 cells. More on the design: method as in PMID 25079700. Conditions: A431, normoxic; cited from earlier work.
On the set-up of series [5]: method as in PMID 29567575. Conditions: pH 7.40; cited from earlier work.
Series [6] deals with EGFR (ErbB1) (Homo sapiens, UniProt P00533). Kind of series: Cell-free kinase inhibition assay (ZLYTE, Select Screen). Type of series: biochemical. Conditions: 10 μM ATP (10-fold excess of ATP), 1% DMSO.
Series [7] in a line: Cyclic voltammetry, cathodic peak potential Co(III)/Co(II). In kind it is physicochemical. Conditions: 10 mM phosphate buffer pH 7.40, 0.1 M KCl, scan rate 30 mV/s, 1.5 mM complex. How it is done: As the reduction process is crucial for the activation of cobalt(III)-based prodrug systems, the redox properties of the complexes were investigated to elucidate the effects of ligand methylation at different positions. Cyclic voltammetry measurements were performed in aqueous solution at pH 7.40 (10 mM phosphate buffer with 0.1 M KCl). […] Also, at a much higher scan speed of 1000 mV/s, the redox processes were still completely irreversible (Figure S5).
The compounds were dissolved in 10 mM phosphate buffer (pH 7.40), with 0.1 M KCl as the supporting electrolyte, to obtain a final concentration of 1.5 mM. Electrochemical experiments were conducted on an EG&G PARC 273A potentiostat/galvanostat with scan rates of 30 and 1000 mV/s at room temperature. Argon was bubbled through the solution before every measurement to remove oxygen. A three-electrode configuration cell was used with a glassy carbon electrode as the working electrode, which was polished before every measurement. The reference electrode was Ag/AgCl/KCl (3.5 M), and the auxiliary electrode was a platinum wire. Electrodes were conditioned regularly in 1 M H2SO4 for 5–10 cycles between voltage limits of −1.0 and 1.0 V at a scan rate of 100 mV/s. The system was calibrated with 1.5 mM K3[Fe(CN)6] for every experiment. Redox potentials measured relative to the Ag/AgCl/KCl (3.5 M) reference electrode were converted for potentials against NHE by the addition of 0.205 V. Measurements were repeated at least three times, and the mean values were calculated.

The nature of series [8]: Serum stability, HPLC-MS. In kind it is in vitro ADME. Conditions: FCS, 37 °C, pH 7.4, 50 μM, 26 h. The procedure:
The data presented in the previous sections indicate that even in the presence of low-molecular weight reducing agents the cobalt(III) complexes are completely stable. Therefore, we wanted to investigate if this is still true in a more elaborate biological environment like blood serum. To this end, the four EGFR inhibitor complexes were dissolved in 50 mM phosphate puffer and mixed in a 1:10 ratio with fetal calf serum (FCS; buffered with 150 mM phosphate buffer to keep a stable pH of 7.4) to a final concentration of 50 μM. The samples were incubated at 37 °C and after 0, 2, 6, 24, and 26 h extracted with acetonitrile and measured by HPLC-MS. […] The intact complex could be observed at 14.2 min (blue peak, m/z 614.0). The red signal at the same retention time (Figure 7A; 14.2 min, m/z 358.1) is a mass spectrometry artifact and belongs to the free ligand generated during ionization of the complex.
For serum stability measurements, 135 μL of FCS, buffered with 150 mM phosphate (Na2HPO4/NaH2PO4) to maintain a pH value of 7.4, was mixed with 15 μL of a 500 μM stock solution of the respective complex in 50 mM phosphate buffer to reach a final concentration of 50 μM. The samples were incubated at 37 °C. At different time points, to 20 μL of serum was added 40 μL of ACN. […] The supernatant was taken up with a syringe and directly measured via HPLC-MS.

Series [9] has as its system EGFR phosphorylation at position Y1068 and ERK 1/2 in A431 cells. Kind of series: Western blot of EGFR signaling (pEGFR Y1068, pERK 1/2) after EGF stimulation. In kind it is cell-based, Human. Conditions: A431 serum-starved, 2 h drug, EGF 50 ng/mL 10 min, normoxic.
The nature of series [10]: Interaction with low-molecular weight reducing agents (GSH, AA, NADH), UV-vis and fluorometric detection. Type of series: physicochemical. Conditions: 10 equiv of GSH, pH 7.40, 25 °C, 24 h. How it is done: The interaction of AA, GSH, and NADH at pH 7.40 (phosphate buffer) was investigated exemplarily for Co(acac)2L^+ and Co(Meacac)2L^+. The reaction was followed by ultraviolet–visible (UV–vis) and fluorometric detection at 25 °C with a 10-fold excess of reducing agent. Spectrofluorometry was proven to be an effective technique for monitoring this redox reaction, because the free EGFR inhibitor ligand L is highly fluorescent, while its cobalt(III) complex has negligible emission (vide supra).[17] Accordingly, an increase in the emission intensity is expected upon reduction and concomitant release of the free ligand. […] The same tendency was observed by UV–vis detection (data not shown). […] AA and NADH were also not able to reduce the two complexes even after 24 h. […]
Proton dissociation processes of PhEn were followed by UV–vis spectrophotometry and spectrofluorometry; samples were prepared in water containing 100 and 10 μM ligand, respectively, and 0.1 M KCl at 25 ± 0.2 °C. The proton dissociation constants and the UV–vis or fluorescence emission spectra of the individual species in the various protonation states were calculated by deconvolution of the spectra recorded in the pH range of 2.0–11.5 with PSEQUAD.[40] […] Batch samples contained 30 μM cobalt(III) complex and 10 equiv of AA, GSH, or NADH in PBS buffer (pH 7.40) and were used only once to record their UV–vis and fluorescence spectra. […]

[11] abbreviates: Homo sapiens, A-431, 0.1% O2, read-out: IC50 hypoxia with 0.1% O2.
The mark [12] stands for this setting: Homo sapiens, A-431, 1% O2, read-out: IC50 hypoxia with 1% O2.
Where [13] appears, read: Homo sapiens, A-431, 5% O2, read-out: IC50 hypoxia with 5% O2.
The mark [14] stands for this setting: Homo sapiens, A-431, 21% O2, read-out: IC50 normoxia.
The mark [15] stands for this setting: 0.1% O2, read-out: IC50 hypoxia with 0.1% O2.
The mark [16] stands for this setting: 1% O2, read-out: IC50 hypoxia with 1% O2.
Where [17] appears, read: 5% O2, read-out: IC50 hypoxia with 5% O2.
[18] abbreviates: 21% O2, read-out: IC50 normoxia.

Sequence of EGFR (ErbB1) (P00533 25-1210): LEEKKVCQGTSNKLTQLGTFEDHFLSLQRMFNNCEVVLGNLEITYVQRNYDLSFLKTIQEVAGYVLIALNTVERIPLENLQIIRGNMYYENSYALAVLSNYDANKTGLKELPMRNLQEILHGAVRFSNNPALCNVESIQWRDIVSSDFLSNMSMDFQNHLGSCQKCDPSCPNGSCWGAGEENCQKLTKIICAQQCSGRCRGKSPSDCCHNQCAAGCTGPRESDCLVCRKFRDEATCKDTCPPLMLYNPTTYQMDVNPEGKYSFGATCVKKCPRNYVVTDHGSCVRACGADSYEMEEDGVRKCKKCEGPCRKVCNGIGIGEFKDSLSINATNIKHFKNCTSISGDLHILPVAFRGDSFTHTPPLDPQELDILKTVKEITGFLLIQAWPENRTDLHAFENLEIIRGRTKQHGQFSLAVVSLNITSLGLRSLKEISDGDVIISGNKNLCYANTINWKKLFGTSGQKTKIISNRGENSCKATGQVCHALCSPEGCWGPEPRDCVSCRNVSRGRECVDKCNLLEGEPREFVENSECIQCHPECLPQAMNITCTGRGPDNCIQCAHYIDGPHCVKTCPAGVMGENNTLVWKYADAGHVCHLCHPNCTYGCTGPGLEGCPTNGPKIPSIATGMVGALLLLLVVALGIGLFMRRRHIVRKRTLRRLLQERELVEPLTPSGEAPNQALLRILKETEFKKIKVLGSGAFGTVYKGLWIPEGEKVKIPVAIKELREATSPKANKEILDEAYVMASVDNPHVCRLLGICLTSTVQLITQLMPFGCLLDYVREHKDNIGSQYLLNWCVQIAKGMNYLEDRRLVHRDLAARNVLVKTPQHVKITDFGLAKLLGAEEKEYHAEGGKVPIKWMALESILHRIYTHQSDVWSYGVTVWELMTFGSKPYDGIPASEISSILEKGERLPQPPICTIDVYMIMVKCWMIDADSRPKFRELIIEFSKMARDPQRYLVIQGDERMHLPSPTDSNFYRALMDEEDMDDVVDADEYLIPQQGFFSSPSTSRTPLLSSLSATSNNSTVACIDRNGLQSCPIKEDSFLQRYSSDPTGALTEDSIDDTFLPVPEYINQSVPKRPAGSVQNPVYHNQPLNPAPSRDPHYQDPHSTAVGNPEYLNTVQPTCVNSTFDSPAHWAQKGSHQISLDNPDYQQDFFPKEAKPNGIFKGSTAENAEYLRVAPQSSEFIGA

For the compound `CC(=O)C=C(C)[O-].CC(=O)C=C(C)[O-].NCCN.[Co+2]` [[Co(II)(acac)2en]], the cytotoxic activity entry in series [1] (A431 cells, both normoxia and hypoxia) is on record as “No significant cytotoxic activity”.
As for `NCCNc1ccc2ncnc(Nc3cccc(Br)c3)c2c1` [L, N^6-(2-Aminoethyl)-N^4-(3-bromophenyl)quinazoline-4,6-diamine], the IC50 in series [2] (setting [11]) came to 13.7 ± 2.9 µM; in series [2] (setting [12]) it was 12.7 ± 2 µM; in series [2] (setting [13]) it was 12.8 ± 0.9 µM; in series [2] (setting [14]), 12 ± 1.3 µM; in [6], 0.00029 µM. Also, the pKa1 in series [3] is reported as under 1.0. Moreover, the pKa2 in [3] is recorded as 9.21. In [4], the “EGFR-inhibitory potential (pEGFR, pERK 1/2)” value (from here on “EGFR-inhibitory potential”) was “potent EGFR inhibition”. For the same compound, the “log D7.40” value in [5] is 1.86 ± 0.03[29].
As for `CC(=O)[CH-]C(C)=O.CC(=O)[CH-]C(C)=O.CNCCNc1ccc2ncnc(Nc3cccc(Br)c3)c2c1.[Cl-].[Co+3]` [Co(acac)2MeL^+, Bis(2,4-pentanedionato) N^4-(3-Bromophenyl)-N^6-[2-(methylamino)ethyl]quinazoline-4,6-diamine Cobalt(III) Chloride], the “cathodic peak potential (Ec) vs NHE” value in series [7] was 120 mV. The IC50 stood at 11.9 ± 3.5 µM in [2] (setting [15]), 12.5 ± 3.1 µM in series [2] (setting [16]), 13.5 ± 3.2 µM in [2] (setting [17]) and 15.1 ± 1.6 µM in [2] (setting [18]). In addition, the “cobalt complex less active than the respective free ligand” value in series [2] (normoxia) is recorded as about 2 fold. Moreover, the “intact compound after serum incubation” value in series [8] was 50%.
On to `CNCCNc1ccc2ncnc(Nc3cccc(Br)c3)c2c1.Cl.Cl` [MeL, N^4-(3-Bromophenyl)-N^6-[2-(methylamino)ethyl]quinazoline-4,6-diamine Dihydrochloride], for which the “anticancer activity relative to L” value in series [2] was “approximately twice as effective as L”. Also, the IC50 stood at 5.4 ± 0.8 µM in series [2] (setting [11]); 5.5 ± 0.4 µM in series [2] (setting [12]); 8.7 ± 1.2 µM in [2] (setting [13]); 6.9 ± 1.8 µM in [2] (setting [14]); 0.00041 µM in [6]. In addition, in series [9], the “EGFR-inhibitory potential” value is reported as “potent EGFR inhibition”.
For the compound `[Cl-].[Cl-].[Co+2]` [CoCl2], the cytotoxic activity result in [1] was “No significant cytotoxic activity”.
As for `CC(=O)[C-](C)C(C)=O.CC(=O)[C-](C)C(C)=O.NCCNc1ccc2ncnc(Nc3cccc(Br)c3)c2c1.[Cl-].[Co+3]` [Co(Meacac)2L^+, Bis(3-methyl-2,4-pentanedionato) N^6-(2-Aminoethyl)-N^4-(3-bromophenyl)quinazoline-4,6-diamine Cobalt(III) Chloride], the “cathodic peak potential (Ec) vs NHE” value in series [7] came to 4 mV. Moreover, the IC50 in series [2] (setting [15]) came to 23.5 ± 5.1 µM; in series [2] (setting [16]), 25.3 ± 3.9 µM; in series [2] (setting [17]), 45.5 ± 2.7 µM; in [2] (setting [18]) it was 51.9 ± 9.4 µM. For the same compound, in [9], the “EGFR-inhibitory potential” value was “distinctly weakened EGFR-inhibitory potential”. Also, in [10], the “reduction / release of free ligand L by GSH” value is “practically no reduction process”.
